Assay results from US20130060024A1, “Compounds useful for treating neurodegenerative disorders” (SATORI PHARMACEUTICALS, INC., priority 2011, published 2013).
Read-outs that look alike come from different tables or passages of the source.

Experiments:
Assay type in all cases: cell-based
Settings in all cases: Homo sapiens
Aβ-38 = Aβ-38 MSD 3-PLEX ELISA, conditioned media of 2B7 cells
Procedure: (§1) Assays were conducted to determine the ability of a Compound of Formula I to modulate […], […], and Aβ-38. Human (6E10) Ab 3-PLEX ELISA kits were purchased from Meso Scale Discovery Labs, 9328 Gaither Road, Gaithersburg, Md. 20877 (Catalog Number […]-3). Plates with capture antibodies were blocked for 1-2 hours at room temperature with 150 μL of the manufactures blocking reagent. Cultured 2B7 cells in 96 well plate with 250 μL of media per well until confluent; Prepared serial dilutions of compounds in DMSO at 100× the final desired concentration; Washed wells with 2B7 cells 1× with 250 μL of media; Diluted DMSO stocks 1:100 into media: Added 250 μL of media containing compounds (1% DMSO) to wells with 2B7 cells for 5 hours at 37° C. Diluted conditioned media: 1 part media with 1% DMSO and 1 part blocking buffer; 150 μL of the 250 μL of conditioned media were used. Seven point standard curve samples were prepared that contained Aβ-42, Aβ-40, and Aβ-38. The highest concentration of Aβ-42 and Aβ-38 was 3,000 pg/mL and the highest concentration of Aβ-40 was 10,000 pg/mL. Subsequent serial dilutions were 1:3 and the final composition of each sample was 1 part blocking buffer and 1 part cell medium containing 1% DMSO. Blocked plates are washed 5× with MSD wash buffer with a plate washer; 25 μL of detection antibody and blocker G reagent in MSD blocking solution was added; 25 μL of samples (1 part conditioned media containing 1% DMSO and 1 part MSD blocking buffer) were then added; Plates were incubated overnight at 4 degrees C. or 2 hours at room temperature. Washed wells 5× with MSD wash buffer; Added 150 μL 2×MSD read buffer; Read with MSD imager. Aβ peptide levels for each peptide were calculated from the standard curve using the MSD software provided with the MSD 2400 Imager. Percent vehicle values for each compound dosage were then calculated and fit to a 4 parameter curve generating IC50 values.

Aβ-42 = Aβ-42 MSD 3-PLEX ELISA, conditioned media of 2B7 cells
Procedure: as §1

Aβ-40 = Aβ-40 MSD 3-PLEX ELISA, conditioned media of 2B7 cells
Procedure: as §1

[1] = 2B7 cells, 5 hours at 37° C., 1% DMSO, read-out: Aβ 38 IC50
[2] = 2B7 cells, 5 hours at 37° C., 1% DMSO, read-out: Aβ 42 IC50
[3] = 5 h, read-out: Aβ 38 DR IC50 Inflection
[4] = 5 h, read-out: Aβ 40 DR IC50 Inflection
[5] = 2B7 cells, 5 hours at 37° C., 1% DMSO, read-out: Aβ 40 IC50
[6] = 5 h, read-out: Aβ 42 DR IC50 Inflection

| Structure (SMILES) | IC50 (Aβ-38; [1]) | IC50 (Aβ-42; [2]) | IC50 (Aβ-38; [3]) | IC50 (Aβ-40; [4]) | IC50 (Aβ-40; [5]) | IC50 (Aβ-42; [6]) |
| --- | --- | --- | --- | --- | --- | --- |
| CCO[C@@H]([C@H]1C[C@@H](C)[C@H]2[C@H](O1)[C@H](O)[C@@]1(C)[C@@H]3CC[C@H]4C(C)(C)[C@@H](OC(=O)NCCNS(=O)(=O)C(F)(F)F)CC[C@@]45C[C@@]35CC[C@]21C)C(C)(C)O [Compound I-1] | 1000 to 5000 nM | 501 to 1000 nM | – | – | – | – |
| CCO[C@@H]([C@H]1C[C@@H](C)[C@H]2[C@H](O1)[C@H](O)[C@@]1(C)[C@@H]3CC[C@H]4C(C)(C)[C@@H](OC(=O)N(C)C5CN(C)C5)CC[C@@]45C[C@@]35CC[C@]21C)C(C)(C)O [Compound I-2] | 100 to 500 nM | < 100 nM | < 100 nM | > 5000 nM | 1000 to 5000 nM | < 100 nM |
| CCO[C@@H]([C@H]1C[C@@H](C)[C@H]2[C@H](O1)[C@H](O)[C@@]1(C)[C@@H]3CC[C@H]4C(C)(C)[C@@H](OC(=O)N5CCNC(C(F)(F)F)C5)CC[C@@]45C[C@@]35CC[C@]21C)C(C)(C)O (stereo partly shown) [Compound I-3] | 1000 to 5000 nM | 100 to 500 nM | – | – | – | – |
| CCO[C@@H]([C@H]1C[C@@H](C)[C@H]2[C@H](O1)[C@H](O)[C@@]1(C)[C@@H]3CC[C@H]4C(C)(C)[C@@H](OC(=O)N5CCN(C6COC6)CC5)CC[C@@]45C[C@@]35CC[C@]21C)C(C)(C)O [Compound I-4] | 1000 to 5000 nM | 100 to 500 nM | – | – | > 5000 nM | 100 to 500 nM |
| CCO[C@@H]([C@H]1C[C@@H](C)[C@H]2[C@H](O1)[C@H](O)[C@@]1(C)[C@@H]3CC[C@H]4C(C)(C)[C@@H](OC(=O)N5CCN(CC(=O)O)CC5)CC[C@@]45C[C@@]35CC[C@]21C)C(C)(C)O [Compound I-5] | – | 100 to 500 nM | – | – | > 5000 nM | 100 to 500 nM |
| CCO[C@@H]([C@H]1C[C@@H](C)[C@H]2[C@H](O1)[C@H](O)[C@@]1(C)[C@@H]3CC[C@H]4C(C)(C)[C@@H](OC(=O)N(C)CC(=O)O)CC[C@@]45C[C@@]35CC[C@]21C)C(C)(C)O [Compound I-6] | – | 501 to 1000 nM | – | – | – | – |
| CCO[C@@H]([C@H]1C[C@@H](C)[C@H]2[C@H](O1)[C@H](O)[C@@]1(C)[C@@H]3CC[C@H]4C(C)(C)[C@@H](OC(=O)N5CCN(CCOC)CC5)CC[C@@]45C[C@@]35CC[C@]21C)C(C)(C)O [Compound I-7] | 501 to 1000 nM | 100 to 500 nM | – | – | – | 100 to 500 nM |
| CCO[C@@H]([C@H]1C[C@@H](C)[C@H]2[C@H](O1)[C@H](O)[C@@]1(C)[C@@H]3CC[C@H]4C(C)(C)[C@@H](OC(=O)N5CCN(C)CC5)CC[C@@]45C[C@@]35CC[C@]21C)C(C)(C)O [Compound I-8] | 100 to 500 nM | < 100 nM | < 100 nM | > 5000 nM | 1000 to 5000 nM | < 100 nM |
| CCO[C@@H]([C@H]1C[C@@H](C)[C@H]2[C@H](O1)[C@H](O)[C@@]1(C)[C@@H]3CC[C@H]4C(C)(C)[C@@H](OC(=O)N5CC(NC)C5)CC[C@@]45C[C@@]35CC[C@]21C)C(C)(C)O [Compound I-9] | 100 to 500 nM | 100 to 500 nM | 100 to 500 nM | – | 1000 to 5000 nM | 100 to 500 nM |
| CCO[C@@H]([C@H]1C[C@@H](C)[C@H]2[C@H](O1)[C@H](O)[C@@]1(C)[C@@H]3CC[C@H]4C(C)(C)[C@@H](OC(=O)N5CCNCC5)CC[C@@]45C[C@@]35CC[C@]21C)C(C)(C)O [Compound I-10] | 100 to 500 nM | < 100 nM | – | – | – | – |
| CCO[C@@H]([C@H]1C[C@@H](C)[C@H]2[C@H](O1)[C@H](O)[C@@]1(C)[C@@H]3CC[C@H]4C(C)(C)[C@@H](OC(=O)NCCN(C)C)CC[C@@]45C[C@@]35CC[C@]21C)C(C)(C)O [Compound I-11] | – | 100 to 500 nM | – | – | – | 100 to 500 nM |
| CCO[C@@H]([C@H]1C[C@@H](C)[C@H]2[C@H](O1)[C@H](O)[C@@]1(C)[C@@H]3CC[C@H]4C(C)(C)[C@@H](OC(=O)NCCN5CCOCC5)CC[C@@]45C[C@@]35CC[C@]21C)C(C)(C)O [Compound I-12] | 1000 to 5000 nM | 100 to 500 nM | – | – | > 5000 nM | 100 to 500 nM |
| CCO[C@@H]([C@H]1C[C@@H](C)[C@H]2[C@H](O1)[C@H](O)[C@@]1(C)[C@@H]3CC[C@H]4C(C)(C)[C@@H](OC(=O)NCCN5CC(OC)C5)CC[C@@]45C[C@@]35CC[C@]21C)C(C)(C)O [Compound I-13] | 1000 to 5000 nM | 100 to 500 nM | – | – | – | 100 to 500 nM |
| CCO[C@@H]([C@H]1C[C@@H](C)[C@H]2[C@H](O1)[C@H](O)[C@@]1(C)[C@@H]3CC[C@H]4C(C)(C)[C@@H](OC(=O)NCCN5CC(F)C5)CC[C@@]45C[C@@]35CC[C@]21C)C(C)(C)O [Compound I-14] | – | 100 to 500 nM | – | – | – | 100 to 500 nM |
| CCO[C@@H]([C@H]1C[C@@H](C)[C@H]2[C@H](O1)[C@H](O)[C@@]1(C)[C@@H]3CC[C@H]4C(C)(C)[C@@H](OC(=O)NCCN5CC(O)C5)CC[C@@]45C[C@@]35CC[C@]21C)C(C)(C)O [Compound I-15] | – | 100 to 500 nM | – | – | – | 100 to 500 nM |
| CCO[C@@H]([C@H]1C[C@@H](C)[C@H]2[C@H](O1)[C@H](O)[C@@]1(C)[C@@H]3CC[C@H]4C(C)(C)[C@@H](OC(=O)NCCN5CCC5)CC[C@@]45C[C@@]35CC[C@]21C)C(C)(C)O [Compound I-16] | – | 100 to 500 nM | – | – | – | 100 to 500 nM |
| CCO[C@@H]([C@H]1C[C@@H](C)[C@H]2[C@H](O1)[C@H](O)[C@@]1(C)[C@@H]3CC[C@H]4C(C)(C)[C@@H](OC(=O)NCCN5CCN(C6COC6)CC5)CC[C@@]45C[C@@]35CC[C@]21C)C(C)(C)O [Compound I-17] | 100 to 500 nM | 100 to 500 nM | – | – | 1000 to 5000 nM | 100 to 500 nM |
| CCO[C@@H]([C@H]1C[C@@H](C)[C@H]2[C@H](O1)[C@H](O)[C@@]1(C)[C@@H]3CC[C@H]4C(C)(C)[C@@H](OC(=O)NCCN5CC(F)(F)C5)CC[C@@]45C[C@@]35CC[C@]21C)C(C)(C)O [Compound I-18] | 501 to 1000 nM | 100 to 500 nM | – | – | > 5000 nM | 100 to 500 nM |
| CCO[C@@H]([C@H]1C[C@@H](C)[C@H]2[C@H](O1)[C@H](O)[C@@]1(C)[C@@H]3CC[C@H]4C(C)(C)[C@@H](OC(=O)NCCN5CCN(C6CCC6)CC5)CC[C@@]45C[C@@]35CC[C@]21C)C(C)(C)O [Compound I-19] | – | 100 to 500 nM | – | – | – | 100 to 500 nM |
| CCO[C@@H]([C@H]1C[C@@H](C)[C@H]2[C@H](O1)[C@H](O)[C@@]1(C)[C@@H]3CC[C@H]4C(C)(C)[C@@H](OC(=O)N5CC(N6CCC6)C5)CC[C@@]45C[C@@]35CC[C@]21C)C(C)(C)O [Compound I-20] | 100 to 500 nM | < 100 nM | – | – | – | – |
| CCO[C@@H]([C@H]1C[C@@H](C)[C@H]2[C@H](O1)[C@H](O)[C@@]1(C)[C@@H]3CC[C@H]4C(C)(C)[C@@H](OC(=O)N5CC(N6CC(OC)C6)C5)CC[C@@]45C[C@@]35CC[C@]21C)C(C)(C)O [Compound I-21] | 501 to 1000 nM | 100 to 500 nM | – | – | – | 100 to 500 nM |
| CCO[C@@H]([C@H]1C[C@@H](C)[C@H]2[C@H](O1)[C@H](O)[C@@]1(C)[C@@H]3CC[C@H]4C(C)(C)[C@@H](OC(=O)NC5CN(C6CCC6)C5)CC[C@@]45C[C@@]35CC[C@]21C)C(C)(C)O [Compound I-22] | 501 to 1000 nM | 100 to 500 nM | – | – | 1000 to 5000 nM | 100 to 500 nM |
| CCO[C@@H]([C@H]1C[C@@H](C)[C@H]2[C@H](O1)[C@H](O)[C@@]1(C)[C@@H]3CC[C@H]4C(C)(C)[C@@H](OC(=O)NC5CN(C6CN(C7CCC7)C6)C5)CC[C@@]45C[C@@]35CC[C@]21C)C(C)(C)O [Compound I-23] | 501 to 1000 nM | 100 to 500 nM | – | – | – | – |
| CCO[C@@H]([C@H]1C[C@@H](C)[C@H]2[C@H](O1)[C@H](O)[C@@]1(C)[C@@H]3CC[C@H]4C(C)(C)[C@@H](OC(=O)NCCN5CCN(CC(F)F)CC5)CC[C@@]45C[C@@]35CC[C@]21C)C(C)(C)O [Compound I-24] | – | 100 to 500 nM | – | – | 1000 to 5000 nM | 100 to 500 nM |
